Results published in ChEMBL document CHEMBL1201862, “PubChem BioAssay data set” (2004).
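48-hour exposure; five concentrations; linearly interpolated endpoints. GI50 marks 50% less growth.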 Active and inactive are the calls of the source. Cut-off read from the data, not from the text of the source: active = GI50 up to about 1.1 µM and inactive = higher.

What was measured:
Experiment in all cases: NCI-60 cell line screen, 48 h
[1] = test system: RXF 393
[2] = test system: OVCAR-3
[3] = test system: RPMI-8226
[4] = test system: OVCAR-4
[5] = test system: IGROV-1
[6] = test system: Malme-3M
[7] = test system: M14
[8] = test system: LOX IMVI
[9] = test system: U-251
[10] = test system: SNB-75
[11] = test system: SNB-19
[12] = test system: RXF 631
[13] = test system: CAKI-1
[14] = test system: HOP-62
[15] = test system: DLD-1
[16] = test system: KM12
[17] = test system: HOP-92
[18] = test system: SW-620
[19] = test system: COLO 205
[20] = test system: ACHN
[21] = test system: NCI-H460
[22] = test system: SK-MEL-5
[23] = test system: CCRF-CEM
[24] = test system: K562
[25] = test system: UO-31
[26] = test system: NCI-H226
[27] = test system: LXFL 529
[28] = test system: SNB-78
[29] = test system: DMS-114
[30] = test system: 786-0
[31] = test system: OVCAR-8
[32] = test system: TK-10
[33] = test system: A498
[34] = test system: HOP-18
[35] = test system: OVCAR-5
[36] = test system: SK-OV-3
[37] = test system: SF-295
[38] = test system: EKVX
[39] = test system: HCT-15
[40] = test system: SF-539
[41] = test system: NCI-H522
[42] = test system: SR
[43] = test system: XF498
[44] = test system: SN12C
[45] = test system: DMS-273
[46] = test system: A549
[47] = test system: UACC-257
[48] = test system: KM-20L2
[49] = test system: SF-268
[50] = test system: HT-29
[51] = test system: HL-60
[52] = test system: UACC-62
[53] = test system: M19-MEL
[54] = test system: HCT-116
[55] = test system: SK-MEL-2
[56] = test system: MOLT-4
[57] = test system: HCC 2998
[58] = test system: SK-MEL-28
[59] = test system: NCI-H23

In the case of `O=C(Nc1nc2ncn(CCO)c2c(=S)[nH]1)c1ccccc1`, the GI50 [1] is reported as > 100 µM (inactive), the GI50 [2] is reported as > 100 µM (inactive) and the GI50 [3] is reported as > 100 µM (inactive). The GI50 [4] was > 100 µM (inactive), the GI50 [5] was > 100 µM (inactive) and the GI50 [6] was > 100 µM (inactive). The GI50 [7] was > 100 µM (inactive), the GI50 [8] was > 100 µM (inactive) and the GI50 [9] was > 100 µM (inactive). For the same compound, the GI50 [10] was > 100 µM (inactive), the GI50 [11] was > 100 µM (inactive) and the GI50 [12] was > 10 µM (inactive). For the same compound, the GI50 [13] was > 100 µM (inactive), the GI50 [14] was > 100 µM (inactive) and the GI50 [15] was > 100 µM (inactive). For the same compound, the GI50 [16] was > 100 µM (inactive), the GI50 [17] was > 100 µM (inactive) and the GI50 [18] was > 100 µM (inactive). The GI50 [19] was > 100 µM (inactive), the GI50 [20] was > 100 µM (inactive) and the GI50 [21] was > 100 µM (inactive). For the same compound, the GI50 [22] was > 100 µM (inactive), the GI50 [23] was > 100 µM (inactive) and the GI50 [24] was > 100 µM (inactive). For the same compound, the GI50 [25] was > 100 µM (inactive), the GI50 [26] was > 100 µM (inactive) and the GI50 [27] was > 100 µM (inactive). For the same compound, the GI50 [28] was > 100 µM (inactive), the GI50 [29] was > 100 µM (inactive) and the GI50 [30] was > 100 µM (inactive). The GI50 [31] was > 100 µM (inactive), the GI50 [32] was > 100 µM (inactive) and the GI50 [33] was > 100 µM (inactive). The GI50 [34] was > 100 µM (inactive), the GI50 [35] was > 100 µM (inactive) and the GI50 [36] was > 100 µM (inactive). The GI50 [37] was > 100 µM (inactive), the GI50 [38] was > 100 µM (inactive) and the GI50 [39] was > 100 µM. The GI50 [40] was > 100 µM (inactive), the GI50 [41] was > 100 µM (inactive) and the GI50 [42] was > 100 µM (inactive). For the same compound, the GI50 [43] was > 100 µM (inactive), the GI50 [44] was > 100 µM (inactive) and the GI50 [45] was > 100 µM (inactive). The GI50 [46] was > 100 µM (inactive), the GI50 [47] was > 100 µM (inactive) and the GI50 [48] was > 100 µM (inactive). For the same compound, the GI50 [49] was > 100 µM (inactive), the GI50 [50] was > 100 µM (inactive) and the GI50 [51] was > 100 µM (inactive). For the same compound, the GI50 [52] was > 100 µM (inactive), the GI50 [53] was > 100 µM (inactive) and the GI50 [54] was > 100 µM (inactive). The GI50 [55] was > 100 µM (inactive).

With `CCC(C)(O)c1cn(-c2ccc(S(=O)(=O)O)cc2)nn1` (stereo not drawn) the GI50 [1] was > 100 µM (inactive), the GI50 [2] was > 100 µM (inactive) and the GI50 [3] was > 100 µM (inactive). The GI50 [4] was > 100 µM (inactive), the GI50 [5] was > 100 µM (inactive) and the GI50 [6] was > 100 µM (inactive). The GI50 [7] was > 100 µM (inactive), the GI50 [8] was > 100 µM (inactive) and the GI50 [9] was > 100 µM (inactive). The GI50 [10] was > 100 µM (inactive), the GI50 [11] was > 100 µM (inactive) and the GI50 [12] was > 100 µM (inactive). For the same compound, the GI50 [13] was > 100 µM (inactive), the GI50 [56] was > 100 µM (inactive) and the GI50 [14] was > 100 µM (inactive). The GI50 [15] was > 100 µM (inactive), the GI50 [16] was > 100 µM (inactive) and the GI50 [17] was > 100 µM (inactive). The GI50 [18] was > 100 µM (inactive), the GI50 [19] was > 100 µM (inactive) and the GI50 [20] was > 100 µM (inactive). For the same compound, the GI50 [21] was > 100 µM (inactive), the GI50 [22] was > 100 µM (inactive) and the GI50 [57] was > 100 µM (inactive). For the same compound, the GI50 [23] was > 100 µM (inactive), the GI50 [24] was > 100 µM (inactive) and the GI50 [25] was > 100 µM (inactive). For the same compound, the GI50 [26] was > 100 µM (inactive), the GI50 [58] was > 100 µM (inactive) and the GI50 [59] was > 100 µM (inactive). The GI50 [27] was > 100 µM (inactive), the GI50 [28] was > 100 µM (inactive) and the GI50 [29] was > 100 µM (inactive). The GI50 [30] was > 100 µM (inactive), the GI50 [31] was > 100 µM (inactive) and the GI50 [32] was > 100 µM (inactive). For the same compound, the GI50 [33] was > 100 µM (inactive), the GI50 [34] was > 100 µM (inactive) and the GI50 [35] was > 100 µM (inactive). For the same compound, the GI50 [36] was > 100 µM (inactive), the GI50 [37] was > 100 µM (inactive) and the GI50 [38] was > 100 µM (inactive). The GI50 [39] was > 100 µM, the GI50 [40] was > 100 µM (inactive) and the GI50 [41] was > 100 µM (inactive). For the same compound, the GI50 [43] was > 100 µM (inactive), the GI50 [44] was > 100 µM (inactive) and the GI50 [45] was > 100 µM (inactive). The GI50 [46] was > 100 µM (inactive), the GI50 [47] was > 100 µM (inactive) and the GI50 [48] was > 100 µM (inactive). The GI50 [49] was > 100 µM (inactive), the GI50 [50] was > 100 µM (inactive) and the GI50 [51] was > 100 µM (inactive). For the same compound, the GI50 [52] was > 100 µM (inactive), the GI50 [53] was > 100 µM (inactive) and the GI50 [54] was > 100 µM (inactive). For the same compound, the GI50 [55] was > 100 µM (inactive).
